Measurements from patent publication US20120270237A9, “METHODS FOR THE IDENTIFICATION OF KINASE INTERACTING MOLECULES AND FOR THE PURIFICATION OF KINASE PROTEINS” (Cellzone AG, priority 2009, published 2012).

Experiments:
Experiment in all cases: Kinobeads competition binding, HL60 cell lysate
Set-up in all cases: endogenous in cells
Settings in all cases: 10 μM free compound
[1] = target: CK2a1 (Homo sapiens, UniProt P68400)
Summary of the method: (§1)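 Target occupancy is inferred from reduced capture of each kinase on compound-coupled beads after lysate pre-treatment with 10 μM free compound, relative to a DMSO lysate. Quantitation used isobaric iTRAQ tags and tandem MS.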

[2] = target: TGFbR1 (Homo sapiens, UniProt P36897)
Summary of the method: as §1

[3] = target: CDK2 (Homo sapiens, UniProt P24941)
Summary of the method: as §1

[4] = target: PYK2 (Homo sapiens, UniProt Q14289)
Summary of the method: as §1

[5] = target: CK2a2 (Homo sapiens, UniProt P19784)
Summary of the method: as §1

[6] = target: T1, PKD3 (Homo sapiens, UniProt O94806)
T1 sequence (O94806 1-890): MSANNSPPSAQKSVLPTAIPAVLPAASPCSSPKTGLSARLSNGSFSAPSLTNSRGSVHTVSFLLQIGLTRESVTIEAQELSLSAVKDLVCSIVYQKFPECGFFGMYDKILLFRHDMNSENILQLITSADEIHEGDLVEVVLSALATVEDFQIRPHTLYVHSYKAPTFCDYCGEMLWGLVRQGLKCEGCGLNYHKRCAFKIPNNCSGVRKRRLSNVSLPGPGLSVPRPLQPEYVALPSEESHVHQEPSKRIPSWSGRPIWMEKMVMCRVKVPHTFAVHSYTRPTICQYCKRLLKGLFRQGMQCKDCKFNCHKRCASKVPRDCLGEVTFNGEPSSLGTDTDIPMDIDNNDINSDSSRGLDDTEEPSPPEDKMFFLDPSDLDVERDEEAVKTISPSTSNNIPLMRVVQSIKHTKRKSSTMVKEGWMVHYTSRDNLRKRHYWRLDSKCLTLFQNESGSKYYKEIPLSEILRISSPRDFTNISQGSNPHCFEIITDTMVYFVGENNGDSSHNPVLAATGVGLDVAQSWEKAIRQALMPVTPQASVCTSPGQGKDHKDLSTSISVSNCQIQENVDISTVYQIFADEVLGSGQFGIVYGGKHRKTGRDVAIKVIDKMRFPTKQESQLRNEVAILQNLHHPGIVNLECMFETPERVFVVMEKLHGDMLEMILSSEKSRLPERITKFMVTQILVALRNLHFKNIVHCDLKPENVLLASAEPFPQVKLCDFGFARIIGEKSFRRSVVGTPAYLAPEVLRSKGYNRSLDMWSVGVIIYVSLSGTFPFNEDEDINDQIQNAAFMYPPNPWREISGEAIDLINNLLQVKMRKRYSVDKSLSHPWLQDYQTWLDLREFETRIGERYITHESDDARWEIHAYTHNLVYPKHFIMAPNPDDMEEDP
Summary of the method: as §1

[7] = target: T2, PIP5K2A (Homo sapiens, UniProt P48426)
T2 sequence (P48426 1-406): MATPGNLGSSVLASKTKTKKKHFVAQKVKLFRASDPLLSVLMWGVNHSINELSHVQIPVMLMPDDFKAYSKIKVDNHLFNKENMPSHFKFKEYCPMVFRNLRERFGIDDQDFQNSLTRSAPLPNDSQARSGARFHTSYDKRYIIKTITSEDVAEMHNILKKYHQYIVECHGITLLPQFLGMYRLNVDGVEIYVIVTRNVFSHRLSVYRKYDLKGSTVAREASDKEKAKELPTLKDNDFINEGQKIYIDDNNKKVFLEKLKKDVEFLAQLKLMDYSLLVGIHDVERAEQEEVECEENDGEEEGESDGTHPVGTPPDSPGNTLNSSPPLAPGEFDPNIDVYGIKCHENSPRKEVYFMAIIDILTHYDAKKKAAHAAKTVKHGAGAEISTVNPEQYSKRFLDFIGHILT
Summary of the method: as §1

inhibition at 10 µM [1]: 97.9%
inhibition at 10 µM [2]: 95.6%
Competition % [3]: 95.1%
inhibition at 10 µM [4]: 95.7%
inhibition at 10 µM [5]: 97.7%
inhibition at 10 µM [6]: 96.9%
inhibition at 10 µM [7]: 97.6%
SMILES: CS(=O)(=O)Nc1ccccc1Nc1nc(Nc2cccc(OCCN)c2)ncc1Cl [CZC31326, N-(2-(2-(3-(2-aminoethoxy)phenylamino)-5-chloropyrimidin-4-ylamino)phenyl)methanesulfonamide]
